Data set [1] deals with Ramos cells. The data set can be described thus: antiproliferation, 72 h, 10% FBS. It counts as cell-based. To be noted: Homo sapiens, read-out: ED50 for antiproliferation. On the procedure:
(§1) Like most 1,4-benzodiazepines, Bz-423 binds strongly to bovine serum albumin (BSA), which reduces the effective concentration of drug free in solution. For example, in tissue culture media containing 10% (v/v) fetal bovine serum (FBS), ca. 99% of the drug is bound to BSA. Therefore, cell culture cytotoxicity assays are conducted in media with 2% FBS to reduce binding to BSA and increase the free [Bz-423]. Under these conditions, the dose response-curve is quite sharp such that there is a limited concentration range at which Bz-423 is only partly effective. Since some benzodiazepines are known to have anti-proliferative properties, the effect of Bz-423 at concentrations <ED50 were carefully analyzed and observed that in addition to inducing apoptosis, Bz-423 prevented cell growth after 3 d in culture. In these low serum conditions, the cytotoxic and anti-proliferative effects overlapped making it difficult to study each effect independently. […] While higher amounts of drug may also block proliferation, it caused apoptosis well before the effects on proliferation could be observed.
(§2) To confirm the decrease in cell number relative to control cells after 3 d of treatment is due to decreased proliferation and not cell death balanced by proliferation, in addition to cell counting, cell divisions were studied. PKH-67 is a fluorescent probe that binds irreversibly to cell membranes and upon cell division is partitioned equally between the daughter cells, making it possible to quantify cell division by flow cytometry. Ramos cells stained with PKH67 and treated with Bz-423 had fewer cell divisions at sub-cytotoxic concentrations which confirmed that the decrease in cell number was due to anti-proliferative affects and not cell death. To determine if Bz-423 induced anti-proliferation was specific to Ramos cells, cell counting and cell cycle experiments were done in other B cell lines and cell lines derived from solid tumors.

Data set [2] concerns Ramos clones transfected to overexpress Bcl-2. The data set can be described thus: antiproliferation, 72 h, 10% FBS. It counts as cell-based. As to conditions: Homo sapiens, Bcl-2, 72 h, read-out: ED50 for antiproliferation. As for the experimental part:
as §1, §2

For data set [3], the system named is Ramos clones transfected to overexpress Bcl-xL. The data set can be described thus: antiproliferation, 72 h, 10% FBS. It counts as cell-based. As to conditions: Homo sapiens, read-out: ED50 for antiproliferation. As for the experimental part: as §1, §2
Data set [4] has as its system malignant B cell line CA46. The data set can be described thus: antiproliferation, 72 h, 10% FBS. It counts as cell-based. To be noted: Homo sapiens, CA46, 72 h, read-out: ED50 for antiproliferation. As for the experimental part: as §1, §2
Data set [5] concerns malignant B cell line Raji. Nature of the data set: antiproliferation, 72 h, 10% FBS. It counts as cell-based. As to conditions: Homo sapiens, read-out: ED50 for antiproliferation. As for the experimental part: as §1, §2
The subject of data set [6] is neuroblastoma cell line IMR-32. The data set can be described thus: antiproliferation, 72 h, 10% FBS. It counts as cell-based. To be noted: Homo sapiens, IMR-32, 72 h, read-out: ED50 for antiproliferation. As for the experimental part: as §1, §2
Data set [7] has as its system neuroblastoma cell line Lan-1. The data set can be described thus: antiproliferation, 72 h, 10% FBS. To be noted: LAN1, Lan-1, 72 h, read-out: ED50 for antiproliferation. It counts as cell-based. As for the experimental part:
as §1, §2

For data set [8], the system named is neuroblastoma cell line SHEP-1. Nature of the data set: antiproliferation, 72 h, 10% FBS. As to conditions: SH-EP1, SHEP-1, 72 h, read-out: ED50 for antiproliferation. It counts as cell-based. As for the experimental part: as §1, §2
The subject of data set [9] is ovarian cells with null p53 (SKOV3). Nature of the data set: antiproliferation, 72 h, 10% FBS. It counts as cell-based. To be noted: Homo sapiens, SK-OV-3, SKOV3, 72 h, read-out: ED50 for antiproliferation. On the procedure: as §1, §2
Data set [10] relates to human skin in organ culture. The data set can be described thus: RA-induced epidermal hyperplasia in human skin organ culture. As to conditions: RA-exposed skin, Bz-423 5 μg/ml. The source says: Replicate 2 mm full-thickness punch biopsies of sun-protected hip skin were obtained from young adult volunteers. The participation of human subjects in this project was approved by the University of Michigan Institutional Review Board, and all subjects provided written informed-consent prior to their inclusion in the study. Immediately upon biopsy, the tissue was immersed in culture medium consisting of Keratinocyte Basal Medium (KBM) (Cambrex Bioscience, Walkersville, Md.). KBM is a low-Ca^2+, serum-free modification of MCDB-153 medium optimized for high-density keratinocyte growth. It was supplemented with CaCl2 to bring the final Ca^2+ concentration to 1.4 mM. After transport to the laboratory on ice, the biopsies were incubated in a 24-well dish containing 250 μl of Ca^2+-supplemented KBM with or without additional treatments (e.g., RA and/or Bz-423). Cultures were incubated at 37° C. in an atmosphere of 95% air and 5% CO2. Other than to maintain the tissue in a minimal volume of medium, nothing further was done to ensure a strict air-liquid interface. Incubation was for 8 days, with change of medium and fresh treatments every second day. […] Average thickness values for untreated, retinoid exposed, and retinoid plus Bz-423-treated biopsies were determined. […]

On to `CN1C(=O)C(Cc2ccc3ccccc3c2)N=C(c2ccc(O)cc2)c2cc(Cl)ccc21` (stereo not shown) [Bz-423], for which the EC50 was 10.7 µM in [1]; 11.9 µM in [2]; 13.7 µM in [3]; 13.4 µM in data set [4]; 12.9 µM in [5]; 18 µM in [6]. Further, the results for the EC50 in data set [7], in [8] and in data set [9] were 13.7 µM, 15.9 µM and 18.2 µM, respectively. Also, in data set [10], the “histologic finding at high concentration” value is on record as “necrosis was observed”.

Values taken from US20090275099A1 (priority 2004, published 2009).
